# Source: the NIST ThermoML archive (doi:10.1021/je900327x)
# Numbers after ± are expanded uncertainties.
# Tests used:
# [1] = 298.15 K; 101.33 kPa; Liquid; Vibrating tube method
# [2] = refractive index (Na D-line) (dimensionless); settings: 298.15 K; 101.33 kPa; Liquid; Standard Abbe refractometry
mass density [1] [kg/m3],refractive index [2],Compound
781.01 ± 0.2,1.37509 ± 0.00068,CC(C)O [propan-2-ol]
1058.87 ± 0.15,1.39779 ± 0.00068,"C1COCO1 [1,3-dioxolane]"
687.73 ± 0.21,1.38887 ± 0.00068,"CC(C)CC(C)(C)C [2,2,4-trimethylpentane]"
